Test: Example 2: animal weight and drug toxicity in MV522 xenograft mice
Format: in vivo, athymic nu/nu mice
Description: Female nude mice (Hsd: Athymic Nude-Foxn1^nu) between 5 and 6 weeks of age weighing approximately 20 grams were obtained from Harlan, Inc. (Madison, Wis.). Animals were injected subcutaneously (SC) with approximately 1×10^7 MV522 cells harvested from tissue culture (1:1 matrigel:media). When tumors grew to approximately 100 cubic millimeters (mm^3) in size, animals were pair-matched by tumor size into treatment and control groups. Animals were ear-tagged and followed individually throughout the experiment.
Initial doses were administered on Day 1 following pair-matching. The experiment was carried out as both a tumor growth inhibition (TGI) and tumor growth delay (TGD) study. For TGI, the endpoint was when the average tumor volume of Group 1 reached 1.2 cm^3. For TGD, the endpoint was reached when each individual animal's tumor volume reached 1.0 cm^3. A 10 mg/ml stock vial of docetaxel was diluted in 0.9% saline on each day of dosing and administered intravenously (IV).
Individual and group mean weights ±SD and percent weight change were recorded twice weekly until study completion beginning Day 1. Group weights through Day 24 or 53 and weight nadir values are reported.

[1] = G2: docetaxel 15 mg/kg IV + NPI-2358 vehicle 1 h after
[2] = G3: docetaxel 15 mg/kg IV + NPI-2358 vehicle 4 h after
[3] = G4: docetaxel 15 mg/kg IV + NPI-2358 vehicle 24 h after
[4] = G11: docetaxel 25 mg/kg IV + NPI-2358 vehicle 1 h after
[5] = G12: docetaxel 25 mg/kg IV + NPI-2358 vehicle 4 h after
[6] = G13: docetaxel 25 mg/kg IV + NPI-2358 vehicle 24 h after

CC(=O)O[C@@]12CO[C@@H]1C[C@H](O)[C@@]1(C)C(=O)[C@H](O)C3=C(C)[C@@H](OC(=O)[C@H](O)[C@@H](NC(=O)OC(C)(C)C)c4ccccc4)C[C@@](O)([C@@H](OC(=O)c4ccccc4)[C@H]21)C3(C)C [Docetaxel, docetaxel]
Final weight - Day 24 % change [1]: +13% | Final weight - Day 24 AVG +/− SD [1]: 22 ± 1 g | Weight nadir % change [1]: −14% | Weight nadir day [1]: 10 | Final weight - Day 24 % change [2]: +12% | Final weight - Day 24 AVG +/− SD [2]: 23 ± 2 g | Weight nadir % change [2]: −10% | Weight nadir day [2]: 10 | Final weight - Day 24 % change [3]: +17% | Final weight - Day 24 AVG +/− SD [3]: 23 ± 2 g | Weight nadir % change [3]: −10% | Weight nadir day [3]: 10 | Final weight - Day 24 % change [4]: −10% | Final weight - Day 24 AVG +/− SD [4]: 18 ± 2 g | Weight nadir % change [4]: −13% | Weight nadir day [4]: 17 | Final weight - Day 24 % change [5]: −11% | Final weight - Day 24 AVG +/− SD [5]: 17 ± 2 g | Weight nadir % change [5]: −14% | Weight nadir day [5]: 10 | Final weight - Day 24 % change [6]: −12% | Final weight - Day 24 AVG +/− SD [6]: 17 ± 3 g | Weight nadir % change [6]: −20% | Weight nadir day [6]: 17

— patent publication US10596169B2, “Cancer treatment with combination of plinabulin and taxane” (BeyondSpring Inc., priority 2013, dated 2020)
